Test [1] deals with breast cancer cell line T-47D. Description: Cell growth assay with breast cancer cell line T-47D. The conditions noted are these: Homo sapiens, T47D, 72 h, T-47D cells, PrestoBlue Cell Viability reagent, read-out: IC50 inhibition of cell growth. In kind it is cell-based. Here is the method: […] of the complete medium was then gently dispersed over the surface of the cell layer for several times. The cell concentration was adjusted to 1×10^4 cells/mL with the complete medium. A 100 μL aliquot of the cell suspension was added to the well of a 96-well plate, and the plate was incubated overnight at 37° C. under 5% CO2 with saturated humidity. On the next day, the medium in each well was aspirated and replaced with a 100 μL aliquot of pre-warmed complete medium at 37° C. in the presence or absence of the test compounds at various concentrations from 0-100 μM. The test compounds were dissolved in DMSO, and the final DMSO concentration in the cell culture was no more than 1%. The plate was incubated for 72 hours at 37° C. under 5% CO2 with saturated humidity. At end of the cell culture a 10 μL aliquot of PrestoBlue® Cell Viability reagent (ThermoFisher Scientific) was added into the well and the plate was incubated at 37° C. for 30 min. The absorption at 570 and 600 nm were measured with a SpectraMax Microplate reader (Molecular Devices), The absorbance at […] was normalized to that at 600 nm.

In another test the target is T1, Erk2 (Homo sapiens, UniProt P28482).
T1 construct: purchased Carna Biosciences
Description: Off-chip Mobility Shift Assay (MSA) kinase inhibition. Format: biochemical. The conditions noted are these: for inhibition at 0.1 µM: inhibitor concentration 0.1 μM. As for the experimental part: (§1) Off-chip Mobility Shift Assay (MSA) by Cama Biosciences, Inc (Natick, Mass.) a used for measuring the kinase activity and inhibition. • 1) The 5 μL of x4 compound solution, 5 μL of x4 Substrate/ATP/Metal solution, and 10 μL of x2 kinase solution were prepared with assay buffer (20 mM HEPES, 0.01% Triton X100, 2 mM DTT, pH 7.5) and mixed and incubated in a well of polypropylene 384 well microplate for 1 or 5 hour(s)* at room temperature.

In the next test the target is T2, LCK (Homo sapiens, UniProt P06239).
T2 construct: purchased Carna Biosciences
Described as above. In kind it is biochemical. The conditions noted are these: for inhibition at 0.1 µM: inhibitor concentration 0.1 μM. As for the experimental part:
as §1

The target of another test is T3, LYNb (Homo sapiens, UniProt P07948).
T3 construct: purchased Carna Biosciences
The test is described as above. Format: biochemical. The conditions noted are these: for inhibition at 0.1 µM: inhibitor concentration 0.1 μM. As for the experimental part: as §1

The target of another test is T4, EGFR (Homo sapiens, UniProt P00533).
T4 construct: purchased Carna Biosciences
The test is described as above. Format: biochemical. The conditions noted are these: for inhibition at 0.1 µM: inhibitor concentration 0.1 μM. Here is the method:
as §1

A further test has as its target T5, KIT(V560G) (Homo sapiens, UniProt P10721, V560G).
T5 construct: purchased Carna Biosciences
Described as above. The conditions noted are these: for inhibition at 0.1 µM: inhibitor concentration 0.1 μM. Format: biochemical. As for the experimental part: as §1

Another test has as its target T6, KIT (Homo sapiens, UniProt P10721).
T6 construct: purchased Carna Biosciences
Described as above. In kind it is biochemical. The conditions noted are these: for inhibition at 0.1 µM: inhibitor concentration 0.1 μM. Here is the method: as §1

In a further test the target is T7, AurA (Homo sapiens, UniProt O14965).
T7 construct: purchased Carna Biosciences
T7 sequence (O14965 1-403): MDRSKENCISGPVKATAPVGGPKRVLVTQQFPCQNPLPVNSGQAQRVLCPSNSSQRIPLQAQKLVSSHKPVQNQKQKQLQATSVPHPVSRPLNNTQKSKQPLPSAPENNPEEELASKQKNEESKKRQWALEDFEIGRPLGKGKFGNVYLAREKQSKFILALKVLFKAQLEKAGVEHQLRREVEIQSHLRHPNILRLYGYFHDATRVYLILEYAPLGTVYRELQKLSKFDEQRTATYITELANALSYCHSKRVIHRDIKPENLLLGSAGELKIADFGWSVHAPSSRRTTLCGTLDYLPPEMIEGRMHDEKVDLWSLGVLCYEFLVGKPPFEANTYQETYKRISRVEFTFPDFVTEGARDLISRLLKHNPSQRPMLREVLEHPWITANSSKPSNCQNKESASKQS
The description is as above. Format: biochemical. The conditions noted are these: for inhibition at 0.1 µM: inhibitor concentration 0.1 μM. Here is the method: as §1

The target in another test is T8, ROS (Homo sapiens, UniProt P08922).
T8 construct: purchased Carna Biosciences
The test is described as above. In kind it is biochemical. The conditions noted are these: inhibitor concentration 0.1 μM. As for the experimental part: as §1

A further test concerns the target T9, FAK (Homo sapiens, UniProt Q05397).
T9 construct: purchased Carna Biosciences, Inc
The test is described as above. In kind it is biochemical. The conditions noted are these: inhibitor concentration 0.1 μM. Here is the method:
as §1

The next test concerns the target T10, EGFR(L858R) (Homo sapiens, UniProt P00533, L858R).
T10 construct: purchased Carna Biosciences
Described as above. In kind it is biochemical. The conditions noted are these: inhibitor concentration 0.1 μM. As for the experimental part: as §1

A further test deals with T11, JNK3 (Homo sapiens, UniProt P53779).
T11 construct: purchased Carna Biosciences, Inc
Described as above. Format: biochemical. The conditions noted are these: inhibitor concentration 0.1 μM. As for the experimental part: as §1

In another test the target is T12, MLK1 (Homo sapiens, UniProt P80192).
T12 construct: purchased Carna Biosciences
Described as above. Format: biochemical. The conditions noted are these: inhibitor concentration 0.1 μM. As for the experimental part:
as §1

Another test addresses T13, BMX (Homo sapiens, UniProt P51813).
T13 construct: purchased Carna Biosciences
T13 sequence (P51813 1-675): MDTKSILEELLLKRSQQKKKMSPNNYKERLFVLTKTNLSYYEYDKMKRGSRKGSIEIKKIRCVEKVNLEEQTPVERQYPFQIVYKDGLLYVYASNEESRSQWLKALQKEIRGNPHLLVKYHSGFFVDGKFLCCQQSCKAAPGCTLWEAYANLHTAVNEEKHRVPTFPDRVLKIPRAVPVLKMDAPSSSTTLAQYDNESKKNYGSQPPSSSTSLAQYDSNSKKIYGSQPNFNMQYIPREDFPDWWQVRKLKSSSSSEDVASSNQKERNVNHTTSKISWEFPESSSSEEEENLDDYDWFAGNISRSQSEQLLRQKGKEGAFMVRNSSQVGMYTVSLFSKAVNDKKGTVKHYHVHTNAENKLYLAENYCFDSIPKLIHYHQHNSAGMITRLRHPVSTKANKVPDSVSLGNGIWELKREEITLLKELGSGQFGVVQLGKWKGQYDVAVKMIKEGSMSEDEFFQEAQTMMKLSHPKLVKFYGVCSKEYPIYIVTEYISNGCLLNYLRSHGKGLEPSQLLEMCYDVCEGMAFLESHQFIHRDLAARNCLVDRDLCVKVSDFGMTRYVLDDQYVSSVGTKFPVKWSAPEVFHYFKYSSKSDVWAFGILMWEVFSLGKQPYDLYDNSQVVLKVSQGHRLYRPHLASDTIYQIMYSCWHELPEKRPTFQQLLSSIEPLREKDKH
Described as above. The conditions noted are these: inhibitor concentration 0.1 μM. In kind it is biochemical. Here is the method: as §1

Setting [2] is: inhibitor concentration 0.01 μM.
Where [3] appears, read: inhibitor concentration 0.01 μM, 0.01 µM.

Results on 5 compounds are retold here after patent publication US10106538B2, “Inhibitors of protein kinases” (PRINCETON DRUG DISCOVERY INC, priority 2015, dated 2018).

T9 sequence (Q05397 whole entry): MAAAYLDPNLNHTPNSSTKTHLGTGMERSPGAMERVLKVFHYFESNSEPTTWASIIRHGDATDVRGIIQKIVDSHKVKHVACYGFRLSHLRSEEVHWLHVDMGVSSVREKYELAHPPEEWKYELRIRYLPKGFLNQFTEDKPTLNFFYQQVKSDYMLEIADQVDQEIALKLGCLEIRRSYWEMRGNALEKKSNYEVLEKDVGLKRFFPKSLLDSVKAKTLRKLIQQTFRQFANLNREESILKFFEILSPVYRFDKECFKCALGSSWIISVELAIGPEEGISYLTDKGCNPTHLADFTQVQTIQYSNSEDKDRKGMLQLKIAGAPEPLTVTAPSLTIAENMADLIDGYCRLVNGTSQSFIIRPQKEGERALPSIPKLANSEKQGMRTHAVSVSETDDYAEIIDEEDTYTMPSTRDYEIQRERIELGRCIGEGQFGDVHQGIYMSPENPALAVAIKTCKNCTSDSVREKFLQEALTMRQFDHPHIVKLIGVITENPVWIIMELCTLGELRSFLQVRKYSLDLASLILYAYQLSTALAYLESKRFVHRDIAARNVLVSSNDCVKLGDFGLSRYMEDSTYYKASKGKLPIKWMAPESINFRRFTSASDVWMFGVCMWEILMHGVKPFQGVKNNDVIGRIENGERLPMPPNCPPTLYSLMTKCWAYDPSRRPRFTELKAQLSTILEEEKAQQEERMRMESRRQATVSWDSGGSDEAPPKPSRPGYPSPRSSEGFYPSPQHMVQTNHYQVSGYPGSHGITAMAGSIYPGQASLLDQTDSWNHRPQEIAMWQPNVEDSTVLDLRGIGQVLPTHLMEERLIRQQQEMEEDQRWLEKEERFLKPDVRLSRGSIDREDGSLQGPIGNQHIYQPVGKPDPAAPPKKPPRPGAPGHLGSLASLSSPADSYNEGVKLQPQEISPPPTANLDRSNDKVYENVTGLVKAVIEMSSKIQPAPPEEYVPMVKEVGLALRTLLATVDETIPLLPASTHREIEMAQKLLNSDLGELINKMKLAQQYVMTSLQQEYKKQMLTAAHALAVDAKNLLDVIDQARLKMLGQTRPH
T1 sequence (P28482 whole entry): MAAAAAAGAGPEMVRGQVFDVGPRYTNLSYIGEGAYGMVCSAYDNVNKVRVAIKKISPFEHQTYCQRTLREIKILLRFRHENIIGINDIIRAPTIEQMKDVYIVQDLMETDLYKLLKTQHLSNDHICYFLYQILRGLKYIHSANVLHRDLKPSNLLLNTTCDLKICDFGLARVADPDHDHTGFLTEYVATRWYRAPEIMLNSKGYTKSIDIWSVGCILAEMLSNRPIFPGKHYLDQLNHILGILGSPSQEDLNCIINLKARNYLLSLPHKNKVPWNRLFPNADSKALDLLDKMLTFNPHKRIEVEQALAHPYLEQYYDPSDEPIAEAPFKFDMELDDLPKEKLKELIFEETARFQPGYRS
T10 sequence (P00533 25-1210 L858R): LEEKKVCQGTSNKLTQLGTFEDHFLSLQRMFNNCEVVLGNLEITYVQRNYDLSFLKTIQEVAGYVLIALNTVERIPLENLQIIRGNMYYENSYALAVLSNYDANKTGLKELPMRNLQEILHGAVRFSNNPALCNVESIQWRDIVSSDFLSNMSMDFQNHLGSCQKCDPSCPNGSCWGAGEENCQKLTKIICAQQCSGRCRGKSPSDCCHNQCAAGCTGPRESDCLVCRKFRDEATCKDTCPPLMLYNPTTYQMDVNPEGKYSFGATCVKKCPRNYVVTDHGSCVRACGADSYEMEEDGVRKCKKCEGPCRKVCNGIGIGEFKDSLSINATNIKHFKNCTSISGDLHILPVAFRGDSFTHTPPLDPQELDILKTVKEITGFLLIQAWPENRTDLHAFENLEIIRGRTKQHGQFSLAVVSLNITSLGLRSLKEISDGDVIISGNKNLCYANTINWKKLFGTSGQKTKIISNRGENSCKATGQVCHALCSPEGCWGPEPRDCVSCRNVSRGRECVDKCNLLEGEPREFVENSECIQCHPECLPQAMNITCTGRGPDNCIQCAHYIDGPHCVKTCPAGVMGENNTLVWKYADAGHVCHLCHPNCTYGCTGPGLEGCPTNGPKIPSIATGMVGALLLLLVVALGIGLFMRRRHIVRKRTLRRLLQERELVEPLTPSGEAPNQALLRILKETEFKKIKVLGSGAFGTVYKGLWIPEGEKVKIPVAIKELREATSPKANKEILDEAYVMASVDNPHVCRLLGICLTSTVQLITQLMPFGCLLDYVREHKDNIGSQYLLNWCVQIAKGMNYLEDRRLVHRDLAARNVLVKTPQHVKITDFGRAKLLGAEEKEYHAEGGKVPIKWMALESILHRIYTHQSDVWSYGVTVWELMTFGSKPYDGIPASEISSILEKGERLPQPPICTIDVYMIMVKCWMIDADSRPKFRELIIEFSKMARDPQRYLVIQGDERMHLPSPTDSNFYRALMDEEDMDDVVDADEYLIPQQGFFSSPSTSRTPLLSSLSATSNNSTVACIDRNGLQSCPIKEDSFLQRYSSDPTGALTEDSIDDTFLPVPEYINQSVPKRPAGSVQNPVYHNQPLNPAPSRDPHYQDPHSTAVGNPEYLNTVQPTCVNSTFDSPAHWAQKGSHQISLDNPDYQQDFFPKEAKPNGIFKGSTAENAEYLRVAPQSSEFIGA
T3 sequence (P07948 1-491 isoform P07948-2): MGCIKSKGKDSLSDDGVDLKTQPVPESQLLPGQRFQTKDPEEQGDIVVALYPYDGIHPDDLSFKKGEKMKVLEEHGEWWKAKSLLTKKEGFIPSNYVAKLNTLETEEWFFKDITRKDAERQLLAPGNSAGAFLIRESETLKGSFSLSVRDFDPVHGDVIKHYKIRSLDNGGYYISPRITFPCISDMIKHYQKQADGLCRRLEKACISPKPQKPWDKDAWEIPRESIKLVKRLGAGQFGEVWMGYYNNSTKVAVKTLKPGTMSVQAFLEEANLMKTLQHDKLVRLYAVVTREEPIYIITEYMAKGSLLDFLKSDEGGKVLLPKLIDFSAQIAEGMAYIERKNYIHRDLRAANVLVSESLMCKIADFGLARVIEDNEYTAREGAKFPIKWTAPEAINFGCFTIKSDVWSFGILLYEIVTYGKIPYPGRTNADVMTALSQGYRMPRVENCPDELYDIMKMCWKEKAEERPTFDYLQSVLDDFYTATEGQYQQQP
T12 sequence (P80192 whole entry): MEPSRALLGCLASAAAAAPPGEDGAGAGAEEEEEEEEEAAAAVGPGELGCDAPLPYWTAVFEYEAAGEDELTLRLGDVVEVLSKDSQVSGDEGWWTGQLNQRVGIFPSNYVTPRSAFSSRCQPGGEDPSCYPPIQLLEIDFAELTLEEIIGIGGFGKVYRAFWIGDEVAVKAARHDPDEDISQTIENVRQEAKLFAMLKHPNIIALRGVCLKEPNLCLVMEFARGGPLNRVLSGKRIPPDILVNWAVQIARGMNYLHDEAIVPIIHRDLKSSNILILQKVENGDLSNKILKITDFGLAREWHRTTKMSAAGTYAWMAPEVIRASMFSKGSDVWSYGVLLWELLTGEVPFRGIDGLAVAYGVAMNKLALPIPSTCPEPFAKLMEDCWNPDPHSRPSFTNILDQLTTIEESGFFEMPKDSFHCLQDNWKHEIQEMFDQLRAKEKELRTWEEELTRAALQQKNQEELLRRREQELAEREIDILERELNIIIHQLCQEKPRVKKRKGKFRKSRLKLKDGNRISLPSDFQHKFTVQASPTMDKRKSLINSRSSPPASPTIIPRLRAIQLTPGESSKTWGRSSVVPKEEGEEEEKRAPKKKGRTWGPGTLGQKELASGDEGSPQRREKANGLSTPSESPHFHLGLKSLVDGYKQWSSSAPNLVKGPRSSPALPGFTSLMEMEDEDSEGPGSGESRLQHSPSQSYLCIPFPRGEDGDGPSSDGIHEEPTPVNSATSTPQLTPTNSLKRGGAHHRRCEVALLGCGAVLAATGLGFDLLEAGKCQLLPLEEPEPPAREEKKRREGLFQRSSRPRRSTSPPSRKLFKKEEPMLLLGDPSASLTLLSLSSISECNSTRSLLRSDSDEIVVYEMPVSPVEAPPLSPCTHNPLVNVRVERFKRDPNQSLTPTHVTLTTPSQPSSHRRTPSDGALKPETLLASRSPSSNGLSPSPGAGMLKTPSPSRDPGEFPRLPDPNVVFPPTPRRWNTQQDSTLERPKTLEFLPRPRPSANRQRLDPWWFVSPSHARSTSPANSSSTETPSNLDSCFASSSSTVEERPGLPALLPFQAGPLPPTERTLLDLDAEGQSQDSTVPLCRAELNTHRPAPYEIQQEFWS
T2 sequence (P06239 whole entry): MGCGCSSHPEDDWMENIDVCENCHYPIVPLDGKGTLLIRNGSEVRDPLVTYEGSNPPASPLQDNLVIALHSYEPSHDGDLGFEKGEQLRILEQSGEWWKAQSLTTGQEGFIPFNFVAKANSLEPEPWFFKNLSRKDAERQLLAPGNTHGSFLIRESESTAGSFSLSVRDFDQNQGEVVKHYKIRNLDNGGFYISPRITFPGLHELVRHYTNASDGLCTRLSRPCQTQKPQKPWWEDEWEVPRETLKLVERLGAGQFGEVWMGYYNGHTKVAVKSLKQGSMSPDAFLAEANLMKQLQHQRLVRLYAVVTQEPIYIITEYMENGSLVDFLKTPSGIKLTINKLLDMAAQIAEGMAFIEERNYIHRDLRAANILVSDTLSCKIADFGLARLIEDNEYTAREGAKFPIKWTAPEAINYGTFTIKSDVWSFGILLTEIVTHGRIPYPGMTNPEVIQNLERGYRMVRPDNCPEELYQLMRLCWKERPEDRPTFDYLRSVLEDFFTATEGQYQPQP

The term IC50 denotes the concentration needed to halve the response being measured. The inhibition is the drop in the measured response relative to a control, in per cent. As for `O=C(c1c(F)ccc(NS(=O)(=O)CCCO)c1F)c1c[nH]c2ncc(-c3ccc(Cl)cc3)cc12` [200-17, N-[3-[5-(4-chlorophenyl)-1H-pyrrolo[2,3-b]pyridine-3-carbonyl]-2,4-difluorophenyl]-3-hydroxypropane-1-sulfonamide], the IC50 in test [1] was less than 20 µM. Besides, the inhibition at 1 µM was less than 50% on Erk2 (inhibitor concentration 1 μM); more than 50% at LCK (inhibitor concentration 1 μM); more than 50% on LYNb (inhibitor concentration 1 μM); more than 50% on EGFR (inhibitor concentration 1 μM); more than 50% on KIT(V560G) (inhibitor concentration 1 μM); more than 50% at KIT (inhibitor concentration 1 μM). The inhibition at 1 µM at AurA (inhibitor concentration 1 μM) is more than 50%. Also, the inhibition at 0.01 µM is more than 30% on LCK (setting [2]), less than 30% at LYNb (setting [2]), less than 30% on KIT(V560G) (setting [2]) and more than 30% on KIT (setting [2]). Further, the inhibition at 0.1 µM on LCK, on LYNb, on KIT(V560G) and on KIT was more than 50% each time.
With `O=C(c1c(F)ccc(NS(=O)(=O)CC(O)CO)c1F)c1c[nH]c2ncc(-c3ccc(Cl)cc3)cc12` (stereo not drawn) [200-73, N-[3-[5-(4-chlorophenyl)-lH-pyrrolo [2,3-b]pyridine-3-carbonyl]-2,4-difluorophenyl]-2,3-dihydroxypropane-l-sulfonamide], the IC50 in [1] was less than 20 µM. For the same compound, the inhibition at 0.1 µM at Erk2, on LCK, at ROS, on LYNb, on FAK and at EGFR(L858R) was less than 30% each time. Besides, the inhibition at 0.1 µM at EGFR, at KIT(V560G), at JNK3, on MLK1, at BMX and on KIT was less than 30% throughout. Moreover, at AurA, the inhibition at 0.1 µM was less than 30%.
As to `C/C=C/S(=O)(=O)Nc1ccc(F)c(C(=O)c2c[nH]c3ncc(-c4ccc(Cl)cc4)cc23)c1F` [200-93b], the IC50 in test [1] is less than 20 µM. The LCK inhibition at LCK (setting [3]) is on record as more than 20%. Also, the “KIT(V560G) inhibition” value on KIT(V560G) (setting [3]) is reported as less than 20%. Besides, the KIT inhibition at KIT (setting [3]) is less than 20%.
In the case of `CC(O)CS(=O)(=O)Nc1ccc(F)c(C(=O)c2c[nH]c3ncc(-c4ccc(Cl)cc4)cc23)c1F` (stereo not drawn) [200-115], the inhibition at 0.1 µM was less than 30% on Erk2; more than 30% on LCK; less than 30% at ROS; less than 30% on LYNb; less than 30% at FAK; less than 30% at EGFR(L858R). Also, the inhibition at 0.1 µM on EGFR, at KIT(V560G), at JNK3, on MLK1, on BMX and on KIT was less than 30% in each case. In addition, the inhibition at 0.1 µM at AurA is less than 30%.
With `CC(=O)CS(=O)(=O)Nc1ccc(F)c(C(=O)c2c[nH]c3ncc(-c4ccc(Cl)cc4)cc23)c1F` [200-117], the inhibition at 0.1 µM was less than 30% on Erk2; more than 30% at LCK; less than 30% on ROS; more than 30% on LYNb; less than 30% on FAK; less than 30% on EGFR(L858R). The inhibition at 0.1 µM on EGFR, on KIT(V560G), at JNK3, on MLK1, on BMX and at KIT was less than 30% throughout. Moreover, on AurA, the inhibition at 0.1 µM is less than 30%.
